Test results taken from publication PMC11881559 (Antimicrobial Agents and Chemotherapy, 2025).

Assays:
[1] = Tolerability and safety assessment (AEs/ADRs, CTCAE 5.0); format: in vivo, human
Description: Safety and tolerability assessments were conducted for all participants who received at least one dose of RAY1216, either alone or in combination with ritonavir, throughout the study. The safety of all participants was evaluated on the basis of clinical symptoms, vital signs, 12-lead ECG, laboratory tests, physical examinations, and the evaluation of adverse events (AEs). All AEs were documented and graded according to the Common Terminology Criteria for Adverse Events (CTCAE, ver. 5.0). The grading scale was as follows: grade 1 (mild), grade 2 (moderate), grade 3 (severe), grade 4 (life threatening), and grade 5 (death).

[2] = rats; preclinical animal studies; cited from earlier work
Omicron = settings: in vitro, corrected by the plasma protein binding rate; cited from earlier work
[3] = Food-effect study, plasma PK; settings: for AUC0-t / AUC0-∞ / Cmax / MRT0-∞: mean (%CV); for t1/2: mean ± SD
[4] = Drug-drug interaction (DDI) study with ritonavir, plasma PK; settings: 200 mg in combination with ritonavir vs 200 mg alone

## O=C(NC1CCCC1)C(=O)[C@H](C[C@@H]1CCNC1=O)NC(=O)[C@@H]1[C@H]2CCC[C@H]2CN1C(=O)[C@@H](NC(=O)C(F)(F)F)C1CCCCC1 [RAY1216, leritrelvir]
[1]; SAD, 800 mg (N = 6)
  ALT elevated (ADR): 0 n (%)
  AST elevated (ADR): 0 n (%)
  Anemia (ADR): 0 n (%)
  Bilirubin elevated (ADR): 0 n (%)
  Diarrhea (ADR): 0 n (%)
  Fatigue (ADR): 0 n (%)
  Grade 2 ADRs: 0 n (%)
  Grade ≥3 AEs: 0 n (%)
  Hypertriglyceridemia (ADR): 0 n (%)
  Hyperuricemia (ADR): 0 n (%)
  Leukopenia (ADR): 0 n (%)
  Nausea (ADR): 0 n (%)
  Neutrophil decreased (ADR): 0 n (%)
  Palpitations (ADR): 0 n (%)
  Serum creatinine elevated (ADR): 0 n (%)
[1]; SAD, 1,600 mg (N = 6)
  ADR, n (%): 2 (33.3) n (%)
  AE, n (%): 2 (33.3) n (%)
  ALT elevated (ADR): 0 n (%)
  AST elevated (ADR): 0 n (%)
  Anemia (ADR): 0 n (%)
  Bilirubin elevated (ADR): 1 (16.7) n (%)
  Diarrhea (ADR): 0 n (%)
  Fatigue (ADR): 0 n (%)
  Grade 2 ADRs: 0 (0.0) n (%)
  Grade ≥3 AEs: 0 n (%)
  Hypertriglyceridemia (ADR): 1 (16.7) n (%)
  Hyperuricemia (ADR): 1 (16.7) n (%)
  Leukopenia (ADR): 0 n (%)
  Nausea (ADR): 0 n (%)
  Neutrophil decreased (ADR): 0 n (%)
  Palpitations (ADR): 0 n (%)
  Serum creatinine elevated (ADR): 0 n (%)
[1]; SAD, 1,600 mg cohort, two participants
  participants reporting at least one ADR: 33.3%
[1]; SAD, 6 out of 32 participants
  participants reporting at least one ADR: 18.8%
[1]; SAD/DDI, 200 mg (N = 6)
  ADR, n (%): 2 (33.3) n (%)
  AE, n (%): 2 (33.3) n (%)
  ALT elevated (ADR): 0 n (%)
  AST elevated (ADR): 0 n (%)
  Anemia (ADR): 0 n (%)
  Bilirubin elevated (ADR): 0 n (%)
  Diarrhea (ADR): 0 n (%)
  Fatigue (ADR): 0 n (%)
  Grade 2 ADRs: 1 (16.7) n (%)
  Grade ≥3 AEs: 0 n (%)
  Hypertriglyceridemia (ADR): 2 (33.3) n (%)
  Hyperuricemia (ADR): 0 n (%)
  Leukopenia (ADR): 0 n (%)
  Nausea (ADR): 0 n (%)
  Neutrophil decreased (ADR): 0 n (%)
  Palpitations (ADR): 0 n (%)
  Serum creatinine elevated (ADR): 0 n (%)
[1]; all cohorts
  grade 3 or above AEs, withdrawal due to AEs, SAEs: No grade 3 or above AEs, participant withdrawal due to AEs, or SAEs occurred
[1]; food-effect study, RAY1216 alone, 5 out of 12 participants
  participants reporting at least one ADR: 41.7%
[1]; food-effect study, RAY1216 alone, after meals, 4 out of 12
  participants reporting at least one ADR: 33.3%
[1]; food-effect study, RAY1216 alone, fasting, 2 out of 12
  participants reporting at least one ADR: 16.7%
[2]
  no-observed-adverse-effect level (NOAEL): 900 mg/kg/day
Omicron
  antiviral 90% effective concentration (EC90): 0.2097 µg/mL
[3]; 500 mg alongside 100 mg ritonavir, fasting
  Tmax: 2.5 h
[3]; 500 mg alongside 100 mg ritonavir, high-fat food
  Tmax: 3.0 h
[3]; 800 mg, Fast
  AUC0-t: 22,700 (38.9) ng·h/mL
  AUC0-∞: 23,000 (38.9) ng·h/mL
  Cmax: 4,760 (31.6) ng/mL
  MRT0-∞: 7.01 (26.4) h
  t1/2: 7.72 ± 4.46 h
[3]; 800 mg, Fast, median (range)
  Tmax: 1.5 (0.5, 3.0) h
[3]; 800 mg, Fed
  AUC0-t: 34,100 (28) ng·h/mL
  AUC0-∞: 34,200 (27.9) ng·h/mL
  Cmax: 8,510 (27.6) ng/mL
  MRT0-∞: 5.96 (22.2) h
  t1/2: 7.08 ± 3.61 h
[3]; 800 mg, Fed, median (range)
  Tmax: 3.0 (1.0, 6.0) h
[3]; 800 mg, feeding vs fasting condition
  Tmax delayed by: 1.5 h
[4]
  mean AUC0-t increased to: 350.07%
  mean AUC0-∞ increased to: 171.00%
  mean C12h concentration increased by: 417.3 ng/mL
  mean Cmax increased to: 348.03%
